Tests used:
[1] = target: Acetylcholinesterase (Homo sapiens, UniProt P22303); assay: Inhibition of AChE (unknown origin) using acetyl thiocholine iodide as substrate after 30 mins by Ellman's method
[2] = target: Cholinesterase (Homo sapiens, UniProt P06276); assay: Inhibition of BChE (unknown origin) using butyryl thiocholine iodide as substrate after 30 mins by Ellman's method
Cholinesterase, sequence (P06276 whole entry): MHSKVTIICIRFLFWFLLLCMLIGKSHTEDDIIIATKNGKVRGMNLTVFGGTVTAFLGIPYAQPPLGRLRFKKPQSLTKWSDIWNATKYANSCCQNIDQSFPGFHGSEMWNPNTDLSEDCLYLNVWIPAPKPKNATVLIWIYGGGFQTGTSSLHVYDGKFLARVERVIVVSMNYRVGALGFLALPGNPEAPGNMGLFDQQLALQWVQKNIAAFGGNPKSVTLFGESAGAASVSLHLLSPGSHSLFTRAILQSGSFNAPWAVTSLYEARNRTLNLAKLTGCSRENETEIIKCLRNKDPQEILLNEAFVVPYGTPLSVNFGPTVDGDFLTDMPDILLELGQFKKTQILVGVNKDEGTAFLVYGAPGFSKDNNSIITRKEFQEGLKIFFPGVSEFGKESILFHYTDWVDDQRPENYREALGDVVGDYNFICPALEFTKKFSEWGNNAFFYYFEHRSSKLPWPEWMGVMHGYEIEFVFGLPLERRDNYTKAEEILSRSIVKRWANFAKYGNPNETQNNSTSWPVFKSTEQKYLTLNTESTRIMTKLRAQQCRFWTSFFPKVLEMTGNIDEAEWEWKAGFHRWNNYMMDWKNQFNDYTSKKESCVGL

Acetylcholinesterase, sequence (P22303 whole entry): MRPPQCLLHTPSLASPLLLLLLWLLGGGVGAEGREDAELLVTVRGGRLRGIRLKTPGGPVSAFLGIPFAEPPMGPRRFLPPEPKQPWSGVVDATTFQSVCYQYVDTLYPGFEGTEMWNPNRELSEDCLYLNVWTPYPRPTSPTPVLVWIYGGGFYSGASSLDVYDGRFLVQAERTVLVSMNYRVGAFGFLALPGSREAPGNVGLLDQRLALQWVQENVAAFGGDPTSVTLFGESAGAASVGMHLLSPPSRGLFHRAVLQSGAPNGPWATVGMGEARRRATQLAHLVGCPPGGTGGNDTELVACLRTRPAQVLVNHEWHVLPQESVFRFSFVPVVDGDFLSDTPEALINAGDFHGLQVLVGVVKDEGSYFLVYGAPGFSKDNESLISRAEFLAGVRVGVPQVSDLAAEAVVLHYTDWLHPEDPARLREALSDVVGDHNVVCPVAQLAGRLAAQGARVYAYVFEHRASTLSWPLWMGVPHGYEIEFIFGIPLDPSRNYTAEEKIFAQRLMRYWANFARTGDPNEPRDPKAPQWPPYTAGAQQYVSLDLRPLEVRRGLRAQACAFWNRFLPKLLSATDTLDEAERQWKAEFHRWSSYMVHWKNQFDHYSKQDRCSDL

NC(=S)NNC=C1C(=O)NC(=O)NC1=O
IC50 [1]: 119 µM
IC50 [2]: 56.5 µM

O=C1NC(=S)NC(=O)C1=CNNC(=S)Nc1ccc(Br)cc1
IC50 [1]: 79.2 µM
IC50 [2]: 68.4 µM

O=C1NC(=S)NC(=O)C1=CNNC(=S)Nc1ccc(C(F)(F)F)cc1
IC50 [1]: 99.4 µM
IC50 [2]: 8.1 µM

O=C1NC(=S)NC(=O)C1=CNNC(=S)Nc1ccc(F)cc1
IC50 [1]: 78.4 µM
IC50 [2]: 57.8 µM

O=C1NC(=O)C(=CNNC(=S)Nc2cccc(C(F)(F)F)c2)C(=O)N1
IC50 [1]: 40.7 µM
IC50 [2]: 136 µM

COc1ccc(NC(=S)NNC=C2C(=O)NC(=S)NC2=O)cc1
IC50 [1]: 206 µM
IC50 [2]: 56.8 µM

N#Cc1ccc(NC(=S)NNC=C2C(=O)NC(=O)NC2=O)cc1
IC50 [2]: 231 µM

CC(=O)NC=C1C(=O)NC(=O)NC1=O
IC50 [1]: 90.9 µM
IC50 [2]: 116 µM

O=C(NNC=C1C(=O)NC(=S)NC1=O)Nc1ccccc1
IC50 [1]: 74.2 µM
IC50 [2]: 3.31 µM

Cc1cccc(Cl)c1NC(=S)NNC=C1C(=O)NC(=O)NC1=O
IC50 [2]: 8.81 µM

O=C1NC(=S)NC(=O)C1=CNNC(=S)Nc1ccccc1
IC50 [1]: 115 µM
IC50 [2]: 57.1 µM

O=C1NC(=S)NC(=O)C1=CNNC(=S)Nc1ccc(Cl)cc1
IC50 [1]: 121 µM
IC50 [2]: 75.4 µM

O=C1NC(=O)C(=CNNC(=O)Nc2ccccc2)C(=O)N1
IC50 [2]: 38.5 µM

— BindingDB's records for doi:10.1007/s00044-013-0847-2 (n/a, 2013)
